Data taken from ChEMBL document CHEMBL3137667, “[Drug-induced liver injury; fourteenth updated edition of the bibliographic database of liver injuries and related drugs]” (Gastroenterol Clin Biol, 2004).

Assays:
[1] = Highest frequency of acute liver toxicity observed during clinical trials, expressed as a percentage. [column '% AIGUE' in source]; settings: human
[2] = human, serum
[3] = human
[4] = human, serum; remark: listed apart in the source
[5] = human; remark: listed apart in the source
[6] = human; remark: listed apart in the source
[7] = human; remark: listed apart in the source
[8] = Highest frequency of moderate liver toxicity observed during clinical trials, expressed as a percentage. [column '% BIOL' in source]; settings: human
[9] = human; remark: listed apart in the source
[10] = human, serum, 4383 h
[11] = human; remark: listed apart in the source
[12] = human; remark: listed apart in the source
[13] = Times to onset, minimal and maximal, observed in the indexed observations. [column 'DELAI' in source]; settings: human
[14] = human; remark: listed apart in the source
[15] = human; remark: listed apart in the source
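Wherever Hepatotoxicity (association with vascular disease) is given: count of indexed literature references reporting vascular liver injury in humans, e.g. peliosis hepatitis, hepatic veno-occlusive disease or Budd-Chiari syndrome.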
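Wherever Hepatotoxicity (benign tumour) is given: value is a count of indexed literature references citing a benign tumour confirmed by histopathology.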
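Wherever Hepatotoxicity (choleostasis) is given: human cholestatic liver injury, shown by histopathology or by peak ALT or AST elevation over alkaline phosphatase ratio below 2, value counts indexed literature reports.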
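Wherever Hepatotoxicity (chronic liver disease) is given: chronic liver injury confirmed by histopathology or persistently raised serum aminotransferase activity beyond 6 months, value given as the count of indexed literature references.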
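Wherever Hepatotoxicity (cirrhosis) is given: value is a count of indexed literature references reporting cirrhosis confirmed by histopathology.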
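Wherever Hepatotoxicity (cytolytic) is given: human cytolytic liver injury, shown by histopathology or by a ratio above 5 of peak ALT or AST elevation to alkaline phosphatase elevation, value counts indexed references.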
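Wherever Hepatotoxicity (granulomatous hepatitis) is given: value is a count of indexed literature references reporting granulomatous liver disease confirmed by histopathology.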
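Wherever Hepatotoxicity (malignant tumour) is given: malignant tumour confirmed by histopathology, value gives the count of indexed literature references reporting it.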
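Wherever Hepatotoxicity (severe hepatitis) is given: human clinical data: severe hepatitis, meaning potentially life-threatening liver failure or clinically observed cases, the value counts how many indexed literature references report it.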
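Wherever Hepatotoxicity (steatosis) is given: steatosis confirmed by histopathology, value is the count of indexed references.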

Row | SMILES | Hepatotoxicity (acute) [1] | Hepatotoxicity (moderate) [2] | Hepatotoxicity (benign tumour) [3] | Hepatotoxicity (acute) [4] | Hepatotoxicity (choleostasis) [5] | Hepatotoxicity (cytolytic) [6] | Hepatotoxicity (severe hepatitis) [7] | Hepatotoxicity (moderate) [8] | Hepatotoxicity (steatosis) [9] | Hepatotoxicity (chronic liver disease) [10] | Hepatotoxicity (granulomatous hepatitis) [11] | Hepatotoxicity (cirrhosis) [12] | Hepatotoxicity (time to onset) [13] | Hepatotoxicity (association with vascular disease) [14] | Hepatotoxicity (malignant tumour) [15]
1 | CCN(CC)C(=O)/C(C#N)=C/c1cc(O)c(O)c([N+](=O)[O-])c1 [ENTACAPONE] | 0% | 1 | 0 | 2 | 2 | 0 | 0 | 0% | 0 | 0 | 0 | 0 | 2 weeks - 6 weeks | 0 | 0
2 | CN1CCN(C2=Nc3ccccc3Oc3ccc(Cl)cc32)CC1 [LOXAPINE] | 0% | 2 | 0 | 1 | 1 | 0 | 0 | 0% | 0 | 0 | 0 | 0 | 1 week - 3 weeks | 0 | 0
3 | Fc1ccccc1C1=NCC(=S)N(CC(F)(F)F)c2ccc(Cl)cc21 [QUAZEPAM] | 0% | 1 | 0 | 0 | 0 | 0 | 0 | 0% | 0 | 0 | 0 | 0 | 4 weeks | 0 | 0
4 | CN1C2CCCC1CC(NC(=O)c1nn(C)c3ccccc13)C2 (stereo not given) [GRANISETRON] | 0% | 2 | 0 | 0 | 0 | 0 | 0 | 7.9% | 0 | 0 | 0 | 0 | 1 week | 0 | 0
5 | CN(C)CCOc1ccc(/C(=C(/CCCl)c2ccccc2)c2ccccc2)cc1 [TOREMIFENE] | 6.1% | 4 | 0 | 2 | 1 | 0 | 0 | 8.3% | 1 | 0 | 0 | 0 | 3 months | 0 | 0
6 | CCC(=O)[C@@]1(C)CC[C@H]2[C@@H]3CCC4=CC(=O)CCC4=C3CC[C@@]21C [PROMEGESTONE] | 0% | 0 | 1 | 0 | 0 | 0 | 0 | 0% | 0 | 0 | 0 | 0 | 3 years | 0 | 0
